Results: publication PMC6010023, “Diethylalkylsulfonamido(4-methoxyphenyl)methyl)phosphonate/phosphonic acid derivatives act as acid phosphatase inhibitors: synthesis accompanied by experimental and molecular modeling assessments” (Journal of Enzyme Inhibition and Medicinal Chemistry, 2016)
Where two headings read alike, the source gives them in different places.

Target: T1, red kidney bean PAP (rkbPAP) (Phaseolus vulgaris, UniProt P80366)
T1 construct: The rkbPAP was purified from red kidney bean according to the method described by Beck et al; from tissue; host or cells: red kidney bean seeds (Phaseolus vulgaris), local market
T1 sequence (P80366 23-459): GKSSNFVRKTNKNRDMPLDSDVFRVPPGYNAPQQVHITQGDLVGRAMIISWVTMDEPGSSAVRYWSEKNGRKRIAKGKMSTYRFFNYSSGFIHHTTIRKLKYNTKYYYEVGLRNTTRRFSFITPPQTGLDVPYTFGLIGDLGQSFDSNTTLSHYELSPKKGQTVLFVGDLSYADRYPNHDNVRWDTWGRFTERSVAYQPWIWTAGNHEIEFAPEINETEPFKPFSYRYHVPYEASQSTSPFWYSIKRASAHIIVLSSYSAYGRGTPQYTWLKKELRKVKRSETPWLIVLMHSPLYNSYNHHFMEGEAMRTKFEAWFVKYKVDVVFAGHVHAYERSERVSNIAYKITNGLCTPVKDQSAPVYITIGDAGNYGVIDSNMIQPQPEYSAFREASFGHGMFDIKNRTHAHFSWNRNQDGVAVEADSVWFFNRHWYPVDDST
Test: rkbPAP inhibition assay with p-NPP as substrate
Format: biochemical
Settings: for Ki / inhibition of PAP (in words): pH 4.9; for inhibition mode: from Ki vs KI and Lineweaver–Burk plots
Source text: PAP from red kidney bean (rkbPAP) was purified following a previously published protocol. Briefly, red kidney beans (Phaseolus vulgaris), provided from local market, were ground and suspended in 0.5 M sodium chloride solution. The suspension was filtered through a muslin cloth, followed by ethanol fractionation and ammonium sulfate precipitation. The purple enzyme solution was dialyzed against several changes of 0.25 M NaCl over a period of several days. The purple precipitate, which formed in the dialysis bag was collected by centrifugation. The resulting preparation stored at 4 °C in 0.5 M NaCl. The protein identity and purity was tested by SDS–polyacrylamide gel electrophoresis (SDS–PAGE) and by comparing with molecular weight protein markers, by loading the protein samples on a 12% slab gel. Protein concentration was determined by Lowry method.
Inhibition assays for rkbPAP was performed in 96-well multi-titer plates using a microplate reader. Kinetic measurements were taken at pH 4.9 (0.1 M sodium citrate buffer with 5% DMSO) at 25 °C using p-nitrophenyl phosphate (p-NPP) as the substrate at concentrations of 1, 2, 4, 6, 8, 10, 12, 14, 18 and 24 mM[29]. The hydrolysis of p-NPP by PAP produces p-nitrophenol (p-NP), which has a characteristic intense yellow color at 405 nm with […] [18]^,[26]. The concentration of enzyme used was ∼60 nM, while at least eight concentrations of each compound ranged from 50 to 2000 µM. The IC50 values obtained by “Dose–response inhibition/variable slopes” equation that was performed using GraphPad Prism version 5.00 for Windows (GraphPad Software, San Diego CA, www.graphpad.com). The experimental data are representative example of three independent experiments. In most cases, the standard deviations were almost within 5% of the experimental values, except for some inhibition data points where standard errors of means were within 10% of the measured values. p < .05 was considered statistically significant.
To determination of inhibition mode, the Michaelis–Menten constant (Km) and maximum velocity (Vmax) and inhibition constants (Ki and KI) values were obtained using Equation (1)[29]^,[30] in the presence of at least four concentrations of each compound which were selected from concentration–activity curves. The data were analyzed by nonlinear regression using the program GraphPad Prism (1) v=Vmax[S]/[S](1+[I]/KI)+Km(1+[I]/Ki) where Ki and KI are the equilibrium dissociation constants for competitive and uncompetitive inhibitor binding, respectively, while, v, [S] and [I] represent the rate of product formation, the substrate and the inhibitor concentration, respectively. […] If Ki < KI, the type of enzyme inhibition was defined as competitive-noncompetitive and if Ki > KI, the type of enzyme inhibition was defined as uncompetitive–noncompetitive. […] For better visual presentation of data of inhibition mode, the Lineweaver–Burk plots were also provided.

[1] = KI, dissociation constant of enzyme–substrate–inhibitor complex (uncompetitive)
[2] = Ki, dissociation constant of enzyme–inhibitor complex (competitive)
[3] = dissociation constant of enzyme–inhibitor complex (competitive), read-out: Ki
[4] = dissociation constant of enzyme–substrate–inhibitor complex (uncompetitive), read-out: KI
[5] = rkbPAP, pH 4.9, 25 °C, p-NPP substrate, read-out: IC50
[6] = rkbPAP, pH 4.9, 25 °C, p-NPP substrate

Row | Compound | inhibition mode | Ki [3] [µM] | IC50 [5] [µM] | inhibition of PAP (in words) | IC50 [6] | also measured
1 | CCCCCCCCCCCCS(=O)(=O)NC(c1ccc(OC)cc1)P(=O)(OCC)OCC (stereo not drawn) [3c, Diethyl(dodecylsulfonamido(4-methoxyphenyl)methyl)phosphonate] | noncompetitive inhibition |  |  |  |  | IC50: 759 µM; Ki [1]: 211 ± 8 µM; Ki [2]: 202 ± 11 µM
2 | CCCCCCCCCCCCS(=O)(=O)NC(c1ccc(OC)cc1)P(=O)(O)O (stereo not drawn) [4c, (Dodecylsulfonamido(4-methoxyphenyl)methyl)phosphonic acid] | noncompetitive inhibition | 95 ± 9 | 421 |  |  | Ki [4]: 103 ± 5 µM
3 | CCCCCCS(=O)(=O)NC(c1ccc(OC)cc1)P(=O)(O)O (stereo not drawn) [4a, (Hexylsulfonamido(4-methoxyphenyl)methyl)phosphonic acid] |  |  |  | negligible inhibitions of PAP, in millimolar range | Very weak inhibitor | 
4 | O=C(O)C(O)C(O)C(=O)O (stereo not drawn) [Tartrate, reference compound] |  | 783 ± 41 | 3310 | weakly inhibited |  | 
5 | CCCCCCS(=O)(=O)NC(c1ccc(OC)cc1)P(=O)(OCC)OCC (stereo not drawn) [3a, Diethyl(hexylsulfonamido(4-methoxyphenyl)methyl)phosphonate] |  |  |  | negligible inhibitions of PAP, in millimolar range | Very weak inhibitor | 
6 | CCCCCCCCS(=O)(=O)NC(c1ccc(OC)cc1)P(=O)(OCC)OCC (stereo not drawn) [3b, Diethyl((4-methoxyphenyl)(octylsulfonamido)methyl)phosphonate] |  |  |  | negligible inhibitions of PAP, in millimolar range | Very weak inhibitor | 
7 | CCCCCCCCCCCCCCCCS(=O)(=O)NC(c1ccc(OC)cc1)P(=O)(OCC)OCC (stereo not drawn) [3d, Diethyl(hexadecylsulfonamido(4-methoxyphenyl)methyl)phosphonate] | mixed manner |  |  |  |  | IC50: 92 µM; Ki [1]: 36 ± 3 µM; Ki [2]: 13 ± 1 µM
8 | CCCCCCCCCCCCCCCCS(=O)(=O)NC(c1ccc(OC)cc1)P(=O)(O)O (stereo not drawn) [4d, (Hexadecylsulfonamido(4-methoxyphenyl)methyl)phosphonic acid] | mixed manner | 1.1 ± 0.2 | 13 |  |  | Ki [4]: 8.2 ± 1.4 µM
9 | CCCCCCCCS(=O)(=O)NC(c1ccc(OC)cc1)P(=O)(O)O (stereo not drawn) [4b, ((4-Methoxyphenyl)(octylsulfonamido)methyl)phosphonic acid] |  |  |  | negligible inhibitions of PAP, in millimolar range | Very weak inhibitor | 
